Data on 15 compounds can be found in patent publication US9242933B2 (AbbVie Deutschland GmbH & Co. KG, priority 2007, dated 2016).

As a reminder, the EC50 is the concentration that produces a half-maximal response.

The target in one test is mGlu3 (Homo sapiens, UniProt Q14832).
Sequence of mGlu3 (Q14832 23-879): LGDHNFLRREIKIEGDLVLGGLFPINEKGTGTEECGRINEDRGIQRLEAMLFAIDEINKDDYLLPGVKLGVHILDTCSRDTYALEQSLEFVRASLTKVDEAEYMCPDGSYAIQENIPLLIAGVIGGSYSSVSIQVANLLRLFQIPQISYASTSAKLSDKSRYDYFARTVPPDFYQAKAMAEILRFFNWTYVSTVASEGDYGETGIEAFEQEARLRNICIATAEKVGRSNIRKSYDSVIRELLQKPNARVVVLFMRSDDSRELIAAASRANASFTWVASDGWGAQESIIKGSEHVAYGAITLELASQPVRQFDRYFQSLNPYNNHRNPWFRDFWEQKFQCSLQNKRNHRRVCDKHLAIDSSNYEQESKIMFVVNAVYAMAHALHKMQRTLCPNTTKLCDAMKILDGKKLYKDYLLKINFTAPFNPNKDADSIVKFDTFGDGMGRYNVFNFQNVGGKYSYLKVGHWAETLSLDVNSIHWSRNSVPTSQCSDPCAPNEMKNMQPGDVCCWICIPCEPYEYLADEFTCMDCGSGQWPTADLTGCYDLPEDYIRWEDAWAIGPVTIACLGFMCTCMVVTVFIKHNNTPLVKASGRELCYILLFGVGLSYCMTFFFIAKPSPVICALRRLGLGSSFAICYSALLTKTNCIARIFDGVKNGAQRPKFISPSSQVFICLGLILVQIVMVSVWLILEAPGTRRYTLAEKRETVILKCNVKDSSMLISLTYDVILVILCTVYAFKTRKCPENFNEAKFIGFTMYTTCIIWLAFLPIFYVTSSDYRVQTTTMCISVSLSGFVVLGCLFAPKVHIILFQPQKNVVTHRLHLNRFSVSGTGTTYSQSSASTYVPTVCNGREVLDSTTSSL
Test: not given
As to conditions: agonist; cited from earlier work.
For `N[C@@]1(C(=O)O)CC[C@H]2[C@H](C(=O)O)[C@H]21` [LY354740], the EC50 was 20 nM.
As to `N[C@@]1(C(=O)O)CO[C@H]2[C@H](C(=O)O)[C@H]21` [LY379268], the EC50 is 5 nM.

In a further test the target is T1, human mGlu2 receptor (Homo sapiens, UniProt Q14416).
T1 construct: expressed in transfected cells; host or cells: HEK293
T1 sequence (Q14416 19-872): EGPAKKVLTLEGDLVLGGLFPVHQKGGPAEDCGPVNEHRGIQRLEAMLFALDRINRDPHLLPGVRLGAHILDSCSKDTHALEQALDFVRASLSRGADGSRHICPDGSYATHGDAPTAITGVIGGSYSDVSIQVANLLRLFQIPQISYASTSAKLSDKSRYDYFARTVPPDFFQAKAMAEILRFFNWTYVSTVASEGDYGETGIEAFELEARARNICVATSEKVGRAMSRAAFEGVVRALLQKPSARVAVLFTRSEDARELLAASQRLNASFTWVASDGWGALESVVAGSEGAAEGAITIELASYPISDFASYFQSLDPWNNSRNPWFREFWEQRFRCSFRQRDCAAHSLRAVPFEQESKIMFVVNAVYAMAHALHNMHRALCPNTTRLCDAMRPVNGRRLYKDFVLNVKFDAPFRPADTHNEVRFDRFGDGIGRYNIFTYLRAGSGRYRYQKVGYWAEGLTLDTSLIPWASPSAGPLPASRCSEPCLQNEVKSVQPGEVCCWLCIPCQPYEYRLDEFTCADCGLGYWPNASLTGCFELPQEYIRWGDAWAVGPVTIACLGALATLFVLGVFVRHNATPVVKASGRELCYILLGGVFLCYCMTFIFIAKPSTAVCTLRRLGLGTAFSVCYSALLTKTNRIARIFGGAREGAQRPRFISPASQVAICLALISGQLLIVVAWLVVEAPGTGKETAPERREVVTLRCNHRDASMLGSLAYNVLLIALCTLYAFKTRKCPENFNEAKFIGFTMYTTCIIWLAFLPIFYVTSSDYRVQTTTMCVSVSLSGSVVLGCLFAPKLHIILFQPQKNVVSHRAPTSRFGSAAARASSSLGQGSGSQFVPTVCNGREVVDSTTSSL
The experiment in a line: FLIPR intracellular Ca2+ assay, potentiation of glutamate response in HEK293 clone expressing mGlu2 receptor, rGLAST and Galpha16. It is filed as cell-based. As to conditions: 1 μM glutamate added ten minutes after test compound, HEK293 cells with human mGlu2, rGLAST, Galpha16, read-out: EC50 values of potentiation effect to glutamate. The method in brief: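 HEK293 cells stably expressing human mGlu2, rat GLAST and Gα16 were loaded with 2 µM Fluo-4 AM and intracellular Ca2+ read by FLIPR. Compound added alone (agonism), then with submaximal glutamate (e.g. 1 µM; potentiation). Background-subtracted peaks normalized to 100 µM glutamate response; EC50 from four-parameter fit.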
As for `CCCN1Cc2cc(NCc3c[nH]nc3-c3ccc(Cl)cc3)ccc2C1=O` [Example 576, 5-{[3-(4-Chloro-phenyl)-1H-pyrazol-4-ylmethyl]-amino}-2-propyl-2,3-dihydro-isoindol-1-one], the EC50 is below 1000 nM.
Same read-out and setting: to `CCCN1Cc2cc(NCc3c[nH]nc3-c3cccc(Cl)c3)ccc2C1=O` [Example 577, 5-{[3-(3-Chloro-phenyl)-1H-pyrazol-4-ylmethyl]-amino}-2-propyl-2,3-dihydro-isoindol-1-one] belongs below 1000 nM.
On the same count and under the same terms, to `CCCN1Cc2cc(NCc3c[nH]nc3-c3cccc(C(F)(F)F)c3)ccc2C1=O` [Example 578] belongs below 1000 nM; to `CCCN1Cc2cc(NCc3c[nH]nc3-c3ccc(F)cc3)ccc2C1=O` [Example 579, 5-{[3-(4-Fluorophenyl)-1H-pyrazol-4-ylmethyl]-amino}-2-propyl-2,3-dihydro-isoindol-1-one], below 1000 nM.
Same read-out and setting: to `CCCN1Cc2cc(NCc3c[nH]nc3-c3cccc(F)c3)ccc2C1=O` [Example 580, 5-{[3-(3-Fluorophenyl)-1H-pyrazol-4-ylmethyl]-amino}-2-propyl-2,3-dihydro-isoindol-1-one] belongs below 1000 nM; to `CCCN1Cc2cc(NCc3c[nH]nc3-c3ccccc3)ccc2C1=O` [Example 581, 5-[(3-Phenyl-1H-pyrazol-4-ylmethyl)-amino]-2-propyl-2,3-dihydro-isoindol-1-one], below 1000 nM; to `CCCN1Cc2cc(NCc3n[nH]cc3-c3cccc(C(F)(F)F)c3)ccc2C1=O` [Example 582], 1000 to 10000 nM.
As to `O=C1c2ccc(OCc3c[nH]nc3-c3ccc(C(F)(F)F)cc3)cc2CN1Cc1ccc(OC(F)(F)F)cc1` [Example 585, 2-(4-Trifluoromethoxy-benzyl)-5-[3-(4-trifluoromethyl-phenyl)-1H-pyrazol-4-ylmethoxy]-2,3-dihydro-isoindol-1-one], the EC50 was below 1000 nM.
On the same count and under the same terms, to `O=C1c2ccc(OCc3c[nH]nc3-c3ccc(C(F)(F)F)cc3)cc2CN1CC1CCCCC1` [Example 586, 2-Cyclohexylmethyl-5-[3-(4-trifluoromethyl-phenyl)-1H-pyrazol-4-ylmethoxy]-2,3-dihydro-isoindol-1-one] belongs below 1000 nM; to `CC(C)CN1Cc2cc(OCc3c[nH]nc3-c3ccc(C(F)(F)F)cc3)ccc2C1=O` [Example 587, 2-Isobutyl-5-[3-(4-trifluoromethyl-phenyl)-1H-pyrazol-4-ylmethoxy]-2,3-dihydro-isoindol-1-one], below 1000 nM.
With `O=C1c2ccc(OCc3c[nH]nc3-c3ccc(C(F)(F)F)cc3)cc2CN1C1CCCC1` [Example 588, 2-Cyclopentyl-5-[3-(4-trifluoromethyl-phenyl)-1H-pyrazol-4-ylmethoxy]-2,3-dihydro-isoindol-1-one], the concentration for a half-maximal effect (EC50) is below 1000 nM.
On the same count and under the same terms, in the case of `O=C1c2ccc(OCc3c[nH]nc3-c3ccc(C(F)(F)F)cc3)cc2CN1c1ccccc1` [Example 589, 2-Phenyl-5-[3-(4-trifluoromethyl-phenyl)-1H-pyrazol-4-ylmethoxy]-2,3-dihydro-isoindol-1-one] it was 1000 to 10000 nM; in that of `CCCN1Cc2cc(NCc3c(C)noc3-c3ccccc3)ccc2C1=O` [Example 590, 5-[(3-Methyl-5-phenyl-isoxazol-4-ylmethyl)-amino]-2-propyl-2,3-dihydro-isoindol-1-one], below 1000 nM.
